Assay results from patent US20230100838A1 (Revolution Medicines, Inc., priority 2019, published 2023).

Assays:
Assay type in all cases: binding
[1] = biological target: T1, GDP-loaded K-Ras (1-169) C51S, C80L, C118S (Homo sapiens, UniProt P01116, C118S/C51S/C80L); assay: K-Ras WT (GDP) cross-linking assay (conjugate formation, TOF mass spectrometry); design: key: 0: No observed x-linking; +: 0 < x ≤ 20; ++: 20 < x ≤ 40; +++: 40 < x ≤ 100; conditions: percent covalently modified K-Ras by MS, room temperature, typical compound conc. 2, 10, 25 μM, endpoints 1 and 24 h
T1 construct: GDP-loaded K-Ras (1-169) C51S, C80L, C118S
Outline: (§1)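 5 μM protein (final, from 50 μM) in HEPES/NaCl/MgCl2 buffer pH 7.4 with compound typically at 2, 10 and 25 μM, room temperature, 1 and 24 h endpoints; formic acid quench. Intact-protein LC–TOF MS; percent modification is covalent adduct peak height over total K-Ras peak height.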

[2] = biological target: T2, GDP-loaded K-Ras (1-169) G12D, C51S, C80L, C118S (Homo sapiens, UniProt P01116, C118S/C51S/C80L/G12D); assay: K-Ras G12D(GDP) cross-linking assay (conjugate formation, TOF mass spectrometry); design: key: 0: No observed x-linking; +: 0 < x ≤ 20; ++: 20 < x ≤ 40; +++: 40 < x ≤ 100; conditions: percent covalently modified K-Ras by MS, room temperature, typical compound conc. 2, 10, 25 μM, endpoints 1 and 24 h
T2 construct: GDP-loaded K-Ras (1-169) G12D, C51S, C80L, C118S
Outline: as §1

K-Ras G12S = K-Ras G12S (Homo sapiens, UniProt P01116, G12S); assay: K-Ras G12S cross-linking assay (comparable procedure, conjugate formation, TOF mass spectrometry); design: key: 0: No observed x-linking
Procedure: Protocol: K-Ras G12D(GDP) Cross-Linking Assay
Note: while the following protocol outlines the procedure for K-Ras G12D(GDP), a person of skill in the art may substitute other Ras proteins, and may also substitute a non-hydrolyzable GTP analog for GDP to study GTP bound Ras protein.
GDP-loaded K-Ras (1-169) G12D, C51S, C80L, C118S and GDP-loaded K-Ras (1-169) C51S, C80L, C118S were adjusted to 50 μM in K-Ras assay buffer (12.5 mM HEPES, 75 mM NaCl and 1 mM MgCl2 at pH 7.4). A 5 μL aliquot of each protein solution was added to each well of a 96-well microplate containing 40 μL of assay buffer. Initial compound stocks were prepared in DMSO at 100 times their final assay concentration. Compounds were then diluted 10-fold into K-Ras assay buffer to 10 times their final concentration. A 5 μL aliquot of each diluted compound solution was added to each protein solution in the 96-well microplate to initiate the reaction, which then proceeded at room temperature. Typical final compound concentrations were 2, 10, and 25 μM. At each time point, the reactions were analyzed immediately or quenched with 5 μL of a 5% formic acid solution and kept at 4° C. until analysis. Typical assay endpoints were 1 and 24 h.
Data collection took place on an Agilent 6230 TOF Mass Spectrometer. Complete reactions were injected onto a C4 reverse-phase column to separate protein from buffer components prior to entering the mass spectrometer. The proteins were eluted from the column by increasing acetonitrile fraction in the mobile phase and fed directly into the mass analyzer. Initial analysis of raw data took place in Agilent MassHunter BioConfirm software and consisted of deconvolution of multiple protein charge states with the maximum entropy algorithm, with a mass step of 1 Da. The heights of all deconvoluted protein masses were exported for further data analysis. The percent modification of each protein was then determined by calculating the peak height of the covalently modified K-Ras species as a percentage of the sum total of K-Ras protein peak height.

[3] = Table 4, percent covalently modified K-Ras by MS
[4] = Table 5, percent covalently modified K-Ras by MS

Row | SMILES | WT x-linking (%) ([1]; Table 4) | G12D x-linking (%) ([2]; Table 4) | G12S x-linking (%) (K-Ras G12S; [3]) | WT x-linking (%) ([1]; Table 5) | G12D x-linking (%) ([2]; Table 5) | G12S x-linking (%) (K-Ras G12S; [4])
1 | Cc1cccc2cccc(N3CCc4c(nc(OC[C@@H]5CCCN5C)nc4N(C)CCN=C=NCc4ccccc4)C3)c12 [Example 27, N-(2-(((benzylimino)methylene)amino)ethyl)-N-methyl-7-(8-methylnaphthalen-1-yl)-2-(((S)-1-methylpyrrolidin-2-yl)methoxy)-5,6,7,8-tetrahydropyrido[3,4-d]pyrimidin-4-amine] | + (0 < x ≤ 20) | ++ (20 < x ≤ 40) | ++ (10 < x ≤ 100) | – | – | –
2 | CC(=O)N1CC1C(=O)N(C)C1CCN(c2nc(OC[C@@H]3CCCN3C)nc3c2CCN(c2cccc4cccc(C)c24)C3)CC1 (stereo partly drawn) [Example 43, 1-acetyl-N-methyl-N-(1-(7-(8-methylnaphthalen-1-yl)-2-(((S)-1-methylpyrrolidin-2-yl)methoxy)-5,6,7,8-tetrahydropyrido[3,4-d]pyrimidin-4-yl)piperidin-4-yl)aziridine-2-carboxamide] | + (0 < x ≤ 20) | + (0 < x ≤ 20) | + (0 < x ≤ 10) | – | – | –
3 | COc1ccc(CN=C=NCCCN(C)c2nc(OC[C@@H]3CCCN3C)nc3c2CCN(c2cccc4cccc(C)c24)C3)cc1 [Example 33, N-(3-((((4-methoxybenzyl)imino)methylene)amino)propyl)-N-methyl-7-(8-methylnaphthalen-1-yl)-2-(((S)-1-methylpyrrolidin-2-yl)methoxy)-5,6,7,8-tetrahydropyrido[3,4-d]pyrimidin-4-amine] | ++ (20 < x ≤ 100) | +++ (40 < x ≤ 100) | ++ (10 < x ≤ 100) | – | – | –
4 | COCC1(N=C=NC2CCN(c3nc(OC[C@@H]4CCCN4C)nc4c3CCN(c3cccc5cccc(C)c35)C4)CC2)CC1 [Example 80, N-(1-(methoxymethyl)cyclopropyl)-N-(1-(7-(8-methylnaphthalen-1-yl)-2-(((S)-1-methylpyrrolidin-2-yl)methoxy)-5,6,7,8-tetrahydropyrido[3,4-d]pyrimidin-4-yl)piperidin-4-yl)methanediimine] | – | – | – | + (0 < x ≤ 20) | ++ (20 < x ≤ 40) | ++ (10 < x ≤ 100)
5 | Cc1cccc2cccc(N3CCc4c(nc(OC[C@@H]5CCCN5C)nc4N4CCC(N(C)C(=O)C5CN5S(C)(=O)=O)CC4)C3)c12 (stereo partly drawn) [Example 44, N-methyl-(1-(7-(8-methylnaphthalen-1-yl)-2-(((S)-1-methylpyrrolidin-2-yl)methoxy)-5,6,7,8-tetrahydropyrido[3,4-d]pyrimidin-4-yl)piperidin-4-yl)-1-(methylsulfonyl)aziridine-2-carboxamide] | + (0 < x ≤ 20) | + (0 < x ≤ 20) | + (0 < x ≤ 10) | – | – | –
6 | Cc1cccc2cccc(N3CCc4c(nc(OC[C@@H]5CCCN5C)nc4N4CCC(B(O)O)CC4)C3)c12 [Example 52, (S)-(1-(7-(8-methylnaphthalen-1-yl)-2-((1-methylpyrrolidin-2-yl)methoxy)-5,6,7,8-tetrahydropyrido[3,4-d]pyrimidin-4-yl)piperidin-4-yl)boronic Acid] | + (0 < x ≤ 20) | + (0 < x ≤ 20) | + (0 < x ≤ 10) | – | – | –
7 | Cc1cccc2cccc(N3CCc4c(nc(OC[C@@H]5CCCN5C)nc4NCCNC(=O)NCCCl)C3)c12 [Example 36, (S)-1-(2-chloroethyl)-3-(2-((7-(8-methylnaphthalen-1-yl)-2-((1-methylpyrrolidin-2-yl)methoxy)-5,6,7,8-tetrahydropyrido[3,4-d]pyrimidin-4-yl)amino)ethyl)urea] | + (0 < x ≤ 20) | + (0 < x ≤ 20) | + (0 < x ≤ 10) | – | – | –
8 | COCCN=C=NC1CCN(c2nc(=O)n(-c3c(C)ccnc3C(C)C)c3nc(-c4ccccc4F)c(F)cc23)CC1 [Example 54, 6-fluoro-7-(2-fluorophenyl)-1-(2-isopropyl-4-methylpyridin-3-yl)-4-(4-((((2-methoxyethyl)imino)methylene)amino)piperidin-1-yl)pyrido[2,3-d]pyrimidin-2(1H)-one] | + (0 < x ≤ 20) | + (0 < x ≤ 20) | + (0 < x ≤ 10) | – | – | –
9 | CCCN=C=NCC1CCN(c2nc(=O)n(-c3c(C)ccnc3C(C)C)c3nc(-c4ccccc4F)c(F)cc23)CC1 [Example 71, 6-fluoro-7-(2-fluorophenyl)-1-(2-isopropyl-4-methylpyridin-3-yl)-4-(4-((((propylimino)methylene)amino)methyl)piperidin-1-yl)pyrido[2,3-d]pyrimidin-2(1H)-one] | – | – | – | ++ (20 < x ≤ 100) | ++ (20 < x ≤ 40) | ++ (10 < x ≤ 100)
10 | COc1ccc(CN=C=NCCN(C)c2nc(OC[C@@H]3CCCN3C)nc3c2CCN(c2cccc4cccc(C)c24)C3)cc1 [Example 29, N-(2-((((4-methoxybenzyl)imino)methylene)amino)ethyl)-N-methyl-7-(8-methylnaphthalen-1-yl)-2-(((S)-1-methylpyrrolidin-2-yl)methoxy)-5,6,7,8-tetrahydropyrido[3,4-d]pyrimidin-4-amine] | ++ (20 < x ≤ 100) | +++ (40 < x ≤ 100) | ++ (10 < x ≤ 100) | – | – | –
11 | COc1ccc(CN=C=NC2CCN(c3nc(OC[C@@H]4CCCN4C)nc4c3CCN(c3cccc5cccc(C)c35)C4)CC2)cc1 [Example 50, N-(4-methoxybenzyl)-N-(1-(7-(8-methylnaphthalen-1-yl)-2-(((S)-1-methylpyrrolidin-2-yl)methoxy)-5,6,7,8-tetrahydropyrido[3,4-d]pyrimidin-4-yl)piperidin-4-yl)methanediimine] | + (0 < x ≤ 20) | + (0 < x ≤ 20) | + (0 < x ≤ 10) | – | – | –
12 | O=C(C1CCN(c2ncnc3c(F)c(-c4ccccc4F)c(Cl)cc23)CC1)C(F)(F)F [Example 18, 1-(1-(6-chloro-8-fluoro-7-(2-fluorophenyl)quinazolin-4-yl)piperidin-4-yl)-2,2,2-trifluoroethan-1-one] | 0 | 0 | 0 | – | – | –
13 | CSCCCN=C=NC1CCN(c2nc(OC[C@@H]3CCCN3C)nc3c2CCN(c2cccc4cccc(C)c24)C3)CC1 [Example 93, N-(1-(7-(8-methylnaphthalen-1-yl)-2-(((S)-1-methylpyrrolidin-2-yl)methoxy)-5,6,7,8-tetrahydropyrido[3,4-d]pyrimidin-4-yl)piperidin-4-yl)-N-(3-(methylthio)propyl)methanediimine] | – | – | – | + (0 < x ≤ 20) | ++ (20 < x ≤ 40) | + (0 < x ≤ 10)
14 | Cc1cccc2cccc(N3CCc4c(nc(OC[C@@H]5CCCN5C)nc4N(C)CCN=C=NCc4ccc(Cl)cc4)C3)c12 [Example 28, N-(2-((((4-chlorobenzyl)imino)methylene)amino)ethyl)-N-methyl-7-(8-methylnaphthalen-1-yl)-2-(((S)-1-methylpyrrolidin-2-yl)methoxy)-5,6,7,8-tetrahydropyrido[3,4-d]pyrimidin-4-amine] | + (0 < x ≤ 20) | ++ (20 < x ≤ 40) | ++ (10 < x ≤ 100) | – | – | –
15 | Cc1cccc2cccc(N3CCc4c(nc(OC[C@@H]5CCCN5C)nc4N4CCC(N=C=NCc5ccon5)CC4)C3)c12 [Example 86, N-(isoxazol-3-ylmethyl)-N-(1-(7-(8-methylnaphthalen-1-yl)-2-(((S)-1-methylpyrrolidin-2-yl)methoxy)-5,6,7,8-tetrahydropyrido[3,4-d]pyrimidin-4-yl)piperidin-4-yl)methanediimine] | – | – | – | ++ (20 < x ≤ 100) | +++ (40 < x ≤ 100) | ++ (10 < x ≤ 100)
